Patent US20240124460A1, “METHODS AND COMPOSITIONS FOR TARGETED PROTEIN DEGRADATION” (Ranok Therapeutics (Hangzhou) Co. Ltd., priority 2020, published 2024)
Where two headings read alike, the source gives them in different places.

Assays:
[1] = tested on: MV-4-11 human acute myeloid leukemia; assay: MV-4-11 CCK-8 proliferation assay; type: cell-based; details: MV-4-11 cells, 72 hr
In short: (§1)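 CCK-8 absorbance read-out, with inhibition expressed against DMSO-treated cells after subtracting a cell-free DMSO medium blank. Compounds tested over a 3-fold dilution series spanning 20 μM to 1.02 nM; lines grown essentially as ATCC recommends.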

[2] = tested on: U-87 MG human glioblastoma; assay: U87 MG CCK-8 proliferation assay; type: cell-based; details: U-87 MG cells, read-out: U87MG CCK-8
In short: as §1

ERBB2 = ERBB2 (HER2) flow cytometry protein degradation assay in BT-474 cells; type: cell-based, human; details: DC50, BT-474 cells, 24 hr
Experimental: To analyze total ERBB2 expression by flow cytometry, cells were detached with trypsin, washed, counted and treated with 10 μl/10^6 cells PE-conjugated, anti-ERBB2 monoclonal antibody (R&D Systems, #FAB1129P) for 30 min at 25° C. in dark. Cells were then washed, resuspended in 200 μl 1% paraformaldehyde and analyzed by flow cytometry.
% Inhibition=100−(D−B)/(S−B)*100%. • S: Fluorescence intensity of cells with antibody • D: Fluorescence intensity of compound-treated cells with antibody • B: Fluorescence intensity of cells without antibody

HSP90α protein = biological target: T1, HSP90α protein (Homo sapiens, UniProt P07900); assay: HSP90α-binding FP (BODIPY) assay; details: FP competition with BODIPY-labeled RNK04010
T1 construct: purchased BPS Bioscience #50298
In short: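 Fluorescence polarization measured competition with N-terminal human HSP90α, using either FITC-geldanamycin or BODIPY-labelled triazolone RNK04010 as tracer (5 nM final each). Compounds were tested in 2.5-fold dilutions from 20 μM to 5.2 nM, with incubation at 25 °C for 120 min (FITC) or 300 min (BODIPY).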

EC50 ([1]; Homo sapiens, MV4-11) [µM]	EC50 ([2]; Homo sapiens, U-87 MG, 72 h) [µM]	IC50 (HSP90α protein) [µM]	EC50 [1] [µM]	EC50 ([2]; 72 hr) [µM]	SMILES	ERBB2 degradation (ERBB2)
0.1 to 1	0.1 to 1	–	–	–	CCOc1cc(N2CCC(C(=O)NCc3ccc(-n4c(O)nnc4-c4cc(CC)c(O)cc4O)cc3F)CC2)ccc1Nc1ncc2c(n1)N(C)c1ccccc1C(=O)N2C [Compound 037, 1-(4-((5,11-dimethyl-6-oxo-6,11-dihydro-5H-benzo[e]pyrimido[5,4-b][1,4]diazepin-2-yl)amino)-3-ethoxyphenyl)-N-(4-(3-(5-ethyl-2,4-dihydroxyphenyl)-5-hydroxy-4H-1,2,4-triazol-4-yl)-2-fluorobenzyl)piperidine-4-carboxamide]	B (DC50 = 100-1000 nM)
0.1 to 1	> 1	–	–	–	CCOc1cc(N2CCC(C(=O)NCc3ccc(-n4c(O)nnc4-c4cc(C)c(O)cc4O)cc3)CC2)ccc1Nc1ncc2c(n1)N(C)c1ccccc1C(=O)N2C [Compound 027, N-(4-(3-(2,4-dihydroxy-5-methylphenyl)-5-hydroxy-4H-1,2,4-triazol-4-yl)benzyl)-1-(4-((5,11-dimethyl-6-oxo-6,11-dihydro-5H-benzo[e]pyrimido[5,4-b][1,4]diazepin-2-yl)amino)-3-ethoxyphenyl)piperidine-4-carboxamide]	C (DC50 > 1000 nM)
0.1 to 1	> 1	–	–	–	CCOc1cc(N2CCC(C(=O)NCc3ccc(-n4c(O)nnc4-c4cc(C(C)C)c(O)cc4O)cc3C(F)(F)F)CC2)ccc1Nc1ncc2c(n1)N(C)c1ccccc1C(=O)N2C [Compound 030, N-(4-(3-(2,4-dihydroxy-5-isopropylphenyl)-5-hydroxy-4H-1,2,4-triazol-4-yl)-2-(trifluoromethyl)benzyl)-1-(4-((5,11-dimethyl-6-oxo-6,11-dihydro-5H-benzo[e]pyrimido[5,4-b][1,4]diazepin-2-yl)amino)-3-ethoxyphenyl)piperidine-4-carboxamide]	B (DC50 = 100-1000 nM)
< 0.1	0.1 to 1	0.1 to 1	–	–	CCOc1cc(N2CCC(C(=O)N3CCC(CN4CCN(Cc5ccc(-n6c(C(=O)N[C@@H](C)C(F)(F)F)nnc6-c6cc(CC)c(O)cc6O)cc5)CC4)CC3)CC2)ccc1Nc1ncc2c(n1)N(S(C)(=O)=O)c1ccccc1C(=O)N2C [Compound 124, (S)-4-(4-((4-((1-(1-(3-ethoxy-4-((5-methyl-11-(methylsulfonyl)-6-oxo-6,11-dihydro-5H-benzo[e]pyrimido[5,4-b][1,4]diazepin-2-yl)amino)phenyl)piperidine-4-carbonyl)piperidin-4-yl)methyl)piperazin-1-yl)methyl)phenyl)-5-(5-ethyl-2,4-dihydroxyphenyl)-N-(1,1,1-trifluoropropan-2-yl)-4H-1,2,4-triazole-3-carboxamide]	B (DC50 = 100-1000 nM)
< 0.1	0.1 to 1	0.1 to 1	–	–	CCOc1cc(N2CCC(C(=O)N3CCC(Cc4ccc(CN(C)Cc5ccc(-n6c(C(=O)NCC(F)(F)F)nnc6-c6cc(C(C)C)c(O)cc6O)cc5)cn4)CC3)CC2)ccc1Nc1ncc2c(n1)N(C)c1ccccc1C(=O)N2C [Compound 057, 5-(2,4-dihydroxy-5-isopropylphenyl)-4-(4-((((6-((1-(1-(4-((5,11-dimethyl-6-oxo-6,11-dihydro-5H-benzo[e]pyrimido[5,4-b][1,4]diazepin-2-yl)amino)-3-ethoxyphenyl)piperidine-4-carbonyl)piperidin-4-yl)methyl)pyridin-3-yl)methyl)(methyl)amino)methyl)phenyl)-N-(2,2,2-trifluoroethyl)-4H-1,2,4-triazole-3-carboxamide]	B (DC50 = 100-1000 nM)
< 0.1	< 0.1	< 0.1	–	–	CCOc1cc(N2CCC(C(=O)N3CCC(CN4CCN(Cc5ccc(-n6c(C(=O)NC(C)C)nnc6-c6cc(CC)c(O)cc6O)cc5)CC4)CC3)CC2)ccc1Nc1ncc2c(n1)N(S(C)(=O)=O)c1ccccc1C(=O)N2C [Compound 098, 4-(4-((4-((1-(1-(3-ethoxy-4-((5-methyl-11-(methylsulfonyl)-6-oxo-6,11-dihydro-5H-benzo[e]pyrimido[5,4-b][1,4]diazepin-2-yl)amino)phenyl)piperidine-4-carbonyl)piperidin-4-yl)methyl)piperazin-1-yl)methyl)phenyl)-5-(5-ethyl-2,4-dihydroxyphenyl)-N-isopropyl-4H-1,2,4-triazole-3-carboxamide]	B (DC50 = 100-1000 nM)
0.1 to 1	> 1	0.1 to 1	–	–	CCOc1cc(N2CCC(C(=O)NCc3ccc(-n4c(O)nnc4-c4cc(CC)c(O)cc4O)cc3)CC2)ccc1Nc1ncc2c(n1)N(C)c1ccccc1C(=O)N2C [Compound 028, 1-(4-((5,11-dimethyl-6-oxo-6,11-dihydro-5H-benzo[e]pyrimido[5,4-b][1,4]diazepin-2-yl)amino)-3-ethoxyphenyl)-N-(4-(3-(5-ethyl-2,4-dihydroxyphenyl)-5-hydroxy-4H-1,2,4-triazol-4-yl)benzyl)piperidine-4-carboxamide]	B (DC50 = 100-1000 nM)
< 0.1	0.1 to 1	0.1 to 1	–	–	CCOc1cc(N2CCC(C(=O)N3CCC(CN4CCN(Cc5ccc(-n6c(O)nnc6-c6cc(CC)c(O)cc6O)cc5)CC4)CC3)CC2)ccc1Nc1ncc2c(n1)N(S(C)(=O)=O)c1ccccc1C(=O)N2C [Compound 070, 2-((2-ethoxy-4-(4-(4-((4-(4-(3-(5-ethyl-2,4-dihydroxyphenyl)-5-hydroxy-4H-1,2,4-triazol-4-yl)benzyl)piperazin-1-yl)methyl)piperidine-1-carbonyl)piperidin-1-yl)phenyl)amino)-5-methyl-11-(methylsulfonyl)-5,11-dihydro-6H-benzo[e]pyrimido[5,4-b][1,4]diazepin-6-one]	B (DC50 = 100-1000 nM)
< 0.1	0.1 to 1	0.1 to 1	–	–	CCOc1cc(N2CCC(C(=O)N3CCC(CN4CCN(Cc5ccc(-n6c(C(=O)N[C@H](C)C(F)(F)F)nnc6-c6cc(CC)c(O)cc6O)cc5)CC4)CC3)CC2)ccc1Nc1ncc2c(n1)N(S(C)(=O)=O)c1ccccc1C(=O)N2C [Compound 123, (R)-4-(4-((4-((1-(1-(3-ethoxy-4-((5-methyl-11-(methylsulfonyl)-6-oxo-6,11-dihydro-5H-benzo[e]pyrimido[5,4-b][1,4]diazepin-2-yl)amino)phenyl)piperidine-4-carbonyl)piperidin-4-yl)methyl)piperazin-1-yl)methyl)phenyl)-5-(5-ethyl-2,4-dihydroxyphenyl)-N-(1,1,1-trifluoropropan-2-yl)-4H-1,2,4-triazole-3-carboxamide]	B (DC50 = 100-1000 nM)
–	–	–	0.1 to 1	0.1 to 1	CCCc1cc(-c2nnc(O)n2-c2ccc(CNC(=O)C3CCN(c4ccc(Nc5ncc6c(n5)N(C)c5ccccc5C(=O)N6C)c(OCC)c4)CC3)cc2)c(O)cc1O [Compound 039, N-(4-(3-(2,4-dihydroxy-5-propylphenyl)-5-hydroxy-4H-1,2,4-triazol-4-yl)benzyl)-1-(4-((5,11-dimethyl-6-oxo-6,11-dihydro-5H-benzo[e]pyrimido[5,4-b][1,4]diazepin-2-yl)amino)-3-ethoxyphenyl)piperidine-4-carboxamide]	B (DC50 = 100-1000 nM)
0.1 to 1	–	–	–	> 1	CCCc1cc(-c2nnc(O)n2-c2ccc(CNC(=O)C3CCN(c4ccc(Nc5ncc6c(n5)N(C)c5ccccc5C(=O)N6C)c(OCC)c4)CC3)cc2)c(O)cc1O [Compound 029, N-(4-(3-(2,4-dihydroxy-5-propylphenyl)-5-hydroxy-4H-1,2,4-triazol-4-yl)benzyl)-1-(4-((5,11-dimethyl-6-oxo-6,11-dihydro-5H-benzo[e]pyrimido[5,4-b][1,4]diazepin-2-yl)amino)-3-ethoxyphenyl)piperidine-4-carboxamide]	B (DC50 = 100-1000 nM)
< 0.1	0.1 to 1	–	–	–	CCOc1cc(N2CCC(C(=O)NCc3ccc(CN4CCC(Cc5ccc(-n6c(C(=O)NC(C)C)nnc6-c6cc(C(C)C)c(O)cc6O)cc5)CC4)cc3)CC2)ccc1Nc1ncc2c(n1)N(C)c1ccccc1C(=O)N2C [Compound 056, N-(4-((4-(4-(3-(2,4-dihydroxy-5-isopropylphenyl)-5-(isopropylcarbamoyl)-4H-1,2,4-triazol-4-yl)benzyl)piperidin-1-yl)methyl)benzyl)-1-(4-((5,11-dimethyl-6-oxo-6,11-dihydro-5H-benzo[e]pyrimido[5,4-b][1,4]diazepin-2-yl)amino)-3-ethoxyphenyl)piperidine-4-carboxamide]	B (DC50 = 100-1000 nM)
